Source: US20060115440A1, “Silver dihydrogen citrate compositions” (priority 2004, published 2006)
Where two headings read alike, the source gives them in different places.

How the values were obtained:
[1] = in a mixture of anion, non-ionic and amphoteric surfactants
[2] = system: bacteria, fungi and viruses
[3] = system: Epidermophyton floccosum DSM 10709; conditions: test solutions 100 ppm Ag^+ in water at pH 7.0 (adjusted with NaOH)
From the text: (§1) In the Table 58, test solutions contained 100 ppm Ag^+ in water at pH 7.0 (adjusted with NaOH).

[4] = system: Malessezia furfur (DSM 6171); conditions: test solutions 100 ppm Ag^+ in water at pH 7.0 (adjusted with NaOH)
From the text: as §1

[5] = system: Propionibacterium acnes (ATCC 6919); conditions: test solutions 100 ppm Ag^+ in water at pH 7.0 (adjusted with NaOH)
From the text: as §1

[6] = system: Chaetomium globosum (ATCC 6205); conditions: test solutions 100 ppm Ag^+ in water at pH 7.0 (adjusted with NaOH)
From the text: as §1

[7] = system: Trichophyton mentagrophytes (ATCC 9533); conditions: test solutions 100 ppm Ag^+ in water at pH 7.0 (adjusted with NaOH)
From the text: as §1

[8] = system: Corynebacterium minutissimum (ATCC 23348); conditions: test solutions 100 ppm Ag^+ in water at pH 7.0 (adjusted with NaOH)
From the text: as §1

[9] = system: Candida albicans (ATCC 10231); conditions: test solutions 100 ppm Ag^+ in water at pH 7.0 (adjusted with NaOH)
From the text: as §1

[10] = system: Trichophyton rubrum (ATCC 10218); conditions: test solutions 100 ppm Ag^+ in water at pH 7.0 (adjusted with NaOH)
From the text: as §1

[11] = system: several varieties of bacteria
From the text: (§2) In the Table 57, test solutions contained 100 ppm Ag^+ in 5% citric acid solution at pH 7.0 (adjusted with NaOH).
as §1

[12] = system: Staphylococcus aureus (ATCC 6538); conditions: test solutions contained 100 ppm Ag^+ in 5% citric acid solution at pH 7.0 (adjusted with NaOH)
From the text: as §2

[13] = system: Corynebacterium xerosis (ATCC 373)
From the text: as §2

[14] = system: Escherichia coli (ATCC 10536); conditions: test solutions contained 100 ppm Ag^+ in 5% citric acid solution at pH 7.0 (adjusted with NaOH)
From the text: as §2

[15] = system: Pseudomonas aeruginosa (ATCC 15442); conditions: test solutions contained 100 ppm Ag^+ in 5% citric acid solution at pH 7.0 (adjusted with NaOH)
From the text: as §2

Structure (SMILES): O=C(O)CC(O)(CC(=O)O)C(=O)[O-].[Ag+] [Silver dihydrogen citrate, silver dihydrogen citrate]
- time-wise stability of the antimicrobial activity [1]: stable and showed good preservation
- antimicrobial activity (in words) [2]: antimicrobial activity against a variety of microbes
- Minimum Inhibitory Concentration (MIC) [3]: 12-48 μg/ml Ag^+
- Minimum Inhibitory Concentration (MIC) [4]: 6.0 μg/ml Ag^+
- Minimum Inhibitory Concentration (MIC) [5]: 6.0 μg/ml Ag^+
- Minimum Inhibitory Concentration (MIC) [6]: 12-24 μg/ml Ag^+
- Minimum Inhibitory Concentration (MIC) [7]: 12-24 μg/ml Ag^+
- Minimum Inhibitory Concentration (MIC) [8]: 3.0 μg/ml Ag^+
- Minimum Inhibitory Concentration (MIC) [9]: 3.0 μg/ml Ag^+
- Minimum Inhibitory Concentration (MIC) [10]: 12-48 μg/ml Ag^+
- effect on several varieties of bacteria (in words) [11]: bacteriostatic
- Minimum Inhibitory Concentration (MIC) [12]: 4.0 μg/ml μg/ml Ag^+
- Minimum Inhibitory Concentration (MIC) ([13]; Corynebacterium xerosis (ATCC 373), test solutions 100 ppm Ag^+ in water at pH 7.0 (adjusted with NaOH)): 3.0 μg/ml Ag^+
- Minimum Inhibitory Concentration (MIC) ([13]; test solutions contained 100 ppm Ag^+ in 5% citric acid solution at pH 7.0 (adjusted with NaOH)): 2.0 μg/ml Ag^+
- Minimum Inhibitory Concentration (MIC) [14]: 2.0 μg/ml Ag^+
- Minimum Inhibitory Concentration (MIC) [15]: 4.0 μg/ml Ag^+
